Test results published in patent US20210317072A1, “H2O CRYSTAL FORMS OF A TCA CYCLE INTERMEDIATE CONJUGATE” (IMBRIA PHARMACEUTICALS, INC., priority 2020, published 2021).

Columns and labels:
Assay type in all cases: physicochemical
[1] = Solid vapor diffusion, precipitates isolated for XRPD analysis
Description: (§1) For with Type A, polymorph screening experiments were set up under 32 conditions using methods of solid vapor diffusion, slurry conversion at room temperature, slurry conversion at 50° C., and temperature cycling. Polymorph screening experiments were performed using different crystallization or solid transition methods.
Solid vapor diffusion experiments were conducted in different solvent conditions. The precipitates were isolated for XRPD analysis.

[2] = Polymorph screening under 32 conditions / form stability
From the text: A comprehensive polymorph screening for a TCA intermediate conjugated to an amino acid which has the structure of Formula (X) was undertaken. The TCA conjugate starting material was characterized by X-ray powder diffraction (XRPD). […] One unique XRPD patterns was observed, which was Type A. Type A is a stable Type At the ambient temperature and humidity.
as §1

[3] = Slurry conversion at room temperature, solids isolated for XRPD analysis
Description: as §1
(§2) Slurry conversion experiments were conducted at room temperate and at 50° C. in different solvent systems. Solids were isolated for XRPD analysis.

[4] = Temperature cycling polymorph screening; conditions: summary of 6 experiments
Description: as §1

[5] = Slurry conversion at 50° C., solids isolated for XRPD analysis
Description: as §1, §2

N[C@@H](COC(=O)CCC(=O)O)C(=O)O [Type A]
Solid Form ([1]; anti-solvent Acetone (exp. 818135-06-A5)): Type A | Solid Form ([1]; anti-solvent DCM (exp. 818135-06-A1)): Type A | Solid Form ([1]; anti-solvent DMSO (exp. 818135-06-A4)): Type A | Solid Form ([1]; anti-solvent EtOH (exp. 818135-06-A2)): Type A | Solid Form ([1]; anti-solvent H2O (exp. 818135-06-A6)): Type A | Solid Form ([1]; anti-solvent THF (exp. 818135-06-A3)): Type A | Crystal Type ([1]; summary of 6 experiments): Type A | Stability of the crystal form ([2]; ambient temperature and humidity): stable | Crystal Type ([2]; total, all 32 screening experiments): Type A, Type A + peak | Solid Form ([3]; Acetone (exp. 818135-04-A2)): Type A | Solid Form ([3]; CAN (exp. 818135-04-A5)): Type A + peak | Solid Form ([3]; DCM (exp. 818135-04-A6)): Type A + peak | Solid Form ([3]; H2O (exp. 818135-04-A7)): Type A | Solid Form ([3]; IPAc (exp. 818135-04-A3)): Type A + peak | Solid Form ([3]; MTBE (exp. 818135-04-A4)): Type A + peak | Solid Form ([3]; MeOH (exp. 818135-04-A1)): Type A | Solid Form ([3]; THF/H2O (0.87:0.13, aW~0.8) (exp. 818135-04-A11)): Type A | Solid Form ([3]; THF/H2O (0.924:0.076, aW~0.6) (exp. 818135-04-A10)): Type A | Solid Form ([3]; THF/H2O (0.956:0.044, aW~0.4) (exp. 818135-04-A9)): Type A + peak | Solid Form ([3]; THF/H2O (0.98:0.02, aW~0.2) (exp. 818135-04-A8)): Type A | Crystal Type ([3]; summary of 11 experiments): Type A, Type A + peak | Crystal Type [4]: Type A, Type A + peak | Solid Form ([5]; slurry at 50° C., 1,4-dioxane (exp. 818135-05-A6)): Type A | Solid Form ([5]; slurry at 50° C., 2-Me THF (exp. 818135-05-A3)): Type A | Solid Form ([5]; slurry at 50° C., CHCL3 (exp. 818135-05-A7)): Type A | Solid Form ([5]; slurry at 50° C., EtOAc (exp. 818135-05-A2)): Type A | Solid Form ([5]; slurry at 50° C., EtOH (exp. 818135-05-A1)): Type A | Solid Form ([5]; slurry at 50° C., MEK (exp. 818135-05-A5)): Type A | Solid Form ([5]; slurry at 50° C., Toluene (exp. 818135-05-A9)): Type A | Solid Form ([5]; slurry at 50° C., n-heptane (exp. 818135-05-A4)): Type A + peak | Crystal Type ([5]; slurry at 50° C., summary of 9 experiments): Type A, Type A + peak
